# Earlier results in patent US8884020B2, “Indole compounds” (Ironwood Pharmaceuticals, Inc., priority 2006, dated 2014).
# Test system: prostaglandin synthesis
# Conditions: Shen et al. 1977
compound,measurement,value
"Cc1c(CC(=O)O)c2cc(O)ccc2n1C(=O)c1ccc(Cl)cc1 [desmethyl metabolite, (1-(4-chlorobenzoyl)-5-hydroxy-2-methyl-1H-indol-3-yl]acetic acid]",ability to inhibit prostaglandin synthesis,some ability to inhibit prostaglandin synthesis
